{"source": "patent US20080025972A1", "about": "“Treating sex steriod responsive disorders” (priority 2006, published 2008)", "key": {"prostate cancer": {"tested_on": "prostate cancer", "test": "Treatment of patients with prostate cancer (Working Examples)", "format": "in vivo, human"}, "[1]": {"molecular_target": "T1, androgen receptor protein (Homo sapiens, UniProt P10275)", "T1 construct": "purchased Cambridge Bioscience, England", "T1 sequence (P10275 1-920)": "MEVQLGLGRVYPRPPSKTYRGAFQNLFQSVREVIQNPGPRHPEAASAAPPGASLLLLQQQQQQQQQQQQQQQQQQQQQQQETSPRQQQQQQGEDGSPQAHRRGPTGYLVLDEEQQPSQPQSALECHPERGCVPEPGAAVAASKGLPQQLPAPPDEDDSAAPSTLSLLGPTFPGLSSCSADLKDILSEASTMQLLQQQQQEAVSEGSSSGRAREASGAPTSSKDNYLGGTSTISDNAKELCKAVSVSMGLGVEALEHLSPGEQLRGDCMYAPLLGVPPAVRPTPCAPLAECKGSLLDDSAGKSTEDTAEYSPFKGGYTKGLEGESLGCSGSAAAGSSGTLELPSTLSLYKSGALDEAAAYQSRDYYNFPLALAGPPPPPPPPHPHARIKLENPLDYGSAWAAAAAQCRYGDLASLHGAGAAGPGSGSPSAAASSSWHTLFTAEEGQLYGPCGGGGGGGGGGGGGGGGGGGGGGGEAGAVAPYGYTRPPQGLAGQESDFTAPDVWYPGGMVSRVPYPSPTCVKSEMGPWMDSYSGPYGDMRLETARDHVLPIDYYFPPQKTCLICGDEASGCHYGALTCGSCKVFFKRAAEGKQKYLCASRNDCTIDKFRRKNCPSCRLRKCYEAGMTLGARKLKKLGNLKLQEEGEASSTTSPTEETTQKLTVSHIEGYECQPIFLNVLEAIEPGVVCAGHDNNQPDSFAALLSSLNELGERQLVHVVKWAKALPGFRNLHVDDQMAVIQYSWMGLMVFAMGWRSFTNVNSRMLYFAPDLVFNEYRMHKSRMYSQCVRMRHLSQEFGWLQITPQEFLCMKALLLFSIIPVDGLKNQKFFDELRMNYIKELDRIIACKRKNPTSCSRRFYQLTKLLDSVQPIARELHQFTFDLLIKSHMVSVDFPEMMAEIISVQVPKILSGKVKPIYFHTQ", "test": "S-nitrosylation of purified androgen receptor, biotin switch assay", "format": "biochemical", "details": "anaerobic conditions; GSH as control", "excerpt": "Purified androgen receptor protein (obtained from Cambridge Bioscience, England) was exposed to nitric oxide by means of contact with nitrosoglutathione (GSNO) under anaerobic conditions. Glutathione (GSH) was used as a control. […] Cell Biol 3, 193-197 (2001)."}, "breast cancer": {"tested_on": "breast cancer", "test": "Treatment of patient with breast cancer (Working Example X)", "format": "in vivo, human", "details": "person, 40 mg PO BID, over 6 months"}, "[2]": {"tested_on": "e-NOS overexpressing prostate cancer cells", "details": "5-10 nmol/L", "procedure": "(§1) Cell proliferation was determined in cellular assays carried out as follows:\n(§2) LNCaP cells (obtained from ATCC) and seeded at 2.5×10^4/well were incubated in charcoal-stripped serum for 24-48 hours prior to stimulation with DHT (5-10 nmole/L) for an additional 48 hours. The number of viable cells (that exclude trypan blue) was counted using a light microscope and a hemocytometer."}, "LNCaP cells": {"tested_on": "LNCaP cells", "details": "5-10 nmol/L, 48 hours, wild type cells", "procedure": "as §1, §2"}, "androgen receptor": {"tested_on": "androgen receptor", "details": "stimulated 24 hours", "experimental": "A luciferase reporter assay as described in Kasbohm, E. A., et al., Journal of Biological Chemistry 289,11583-11589 (2005), was used to detect androgen receptor activation.\nAs a control, the following was carried out. Androgen receptor in the form of prostate cancer cells was incubated with androgen under the following conditions.\nCells were seeded in 100-mm dishes and transfected at 70% confluence using DMRIE-C Reagent (Invitrogen). Transfections were carried out with cDNAs encoding the probasin or ARR2 luciferase (1 μg) and SV40-Renilla luciferase reporter plasmid (Promega) (10 ng) together with empty vector or the indicated gene of interest using a total of 6 μg of DNA/plate. At the end of transfection, cells were equally divided into 6-well plates and allowed to attach. The culture medium was replaced after 24 hours with starvation medium (phenol red-free RPMI 1640 cell culture medium) containing 5% charcoal-stripped fetal bovine serum, 1% penicillin/streptomycin, and 10 mM HEPES buffer, pH 7.5), and identical cell populations, in duplicate, were stimulated with androgen or vehicle for an additional 24 hours. Luciferase activities in cell lysates were measured using the Dual Luciferase assay system (Promega; Madison, Wis.) and were normalized by the Renilla activities and protein concentrations of the samples."}, "[3]": {"tested_on": "PSA protein expression in LNCaP cells", "test": "PSA protein expression in LNCaP cells (immunoblot)", "format": "cell-based", "details": "nitric oxide synthesis inhibited; DHT 10 nmol/L 24 hours", "procedure": "The experiments of Background Example 4 were repeated but instead of determining androgen receptor activation, PSA level was measured by PSA protein expression in LNCaP cells. LNCaP cells were incubated in phenol red-free RPMI cell culture medium containing 5% charcoal-stripped fetal bovine serum (CSS) for 48 hours and then treated with dihydrotestosterone (DHT) (10 nmol/L) or vehicle control (ethanol) for 24 hours. Immunoblots were conducted using anti-PSA antibodies to measure PSA protein expression. Same filters were immunoblotted using anti-actin antibodies as control to establish equal loading of proteins."}}, "data": [{"smiles": "N[C@H](CCC(=O)N[C@H](CS)C(=O)NCC(=O)O)C(=O)O", "note": "[D-glutathione]", "values": [{"measurement": "PSA level drop", "setting": "prostate cancer; person, 150 mg orally 4 times/day, over 4 months", "value": 50, "unit": "%"}]}, {"smiles": "O=[N+]([O-])O[C@H]1CO[C@H]2[C@@H]1OC[C@H]2O[N+](=O)[O-]", "note": "[isosorbide dinitrate]", "values": [{"measurement": "PSA level", "setting": "prostate cancer; person, 20 mg PO BID, over 3 months", "value": "stabilizes"}]}, {"smiles": "O=[N+]([O-])OCC(CO[N+](=O)[O-])O[N+](=O)[O-]", "note": "[nitroglycerin]", "values": [{"measurement": "progression of the disease measured by PSA and bony metastases", "setting": "prostate cancer; topical 0.8 mg/hour, after progression on busaralin", "value": "slows"}]}, {"smiles": "N[C@@H](CCC(=O)N[C@@H](CSN=O)C(=O)NCC(=O)O)C(=O)O", "note": "[nitrosoglutathione]", "values": [{"measurement": "S-nitrosylation of androgen receptor", "setting": "[1]", "value": "S-Nitrosylation of androgen receptor was detected"}, {"measurement": "PSA level decrease", "setting": "prostate cancer; human, in vivo, po", "value": 50, "unit": "%"}]}, {"smiles": "O=[N+]([O-])O[C@@H]1CO[C@H]2[C@@H]1OC[C@@H]2O", "note": "[isosorbide mononitrate]", "values": [{"measurement": "lung metastases", "setting": "breast cancer", "value": "regress"}, {"measurement": "PSA level decline", "setting": "prostate cancer; person, 40 mg PO BID, 3 months", "value": 50, "unit": "%"}]}, {"smiles": "CCNC(=O)[C@@H]1CCCN1C(=O)[C@H](CCCNC(=N)N)NC(=O)[C@H](CC(C)C)NC(=O)[C@@H](COC(C)(C)C)NC(=O)[C@H](Cc1ccc(O)cc1)NC(=O)[C@H](CO)NC(=O)[C@H](Cc1c[nH]c2ccccc12)NC(=O)[C@H](Cc1cnc[nH]1)NC(=O)[C@@H]1CCC(=O)N1", "note": "[busaralin]", "values": [{"measurement": "disease course", "setting": "prostate cancer; person with body metastases, busaralin treatment", "value": "the disease progresses"}]}, {"smiles": "C[C@]12CCC(=O)C[C@@H]1CC[C@@H]1[C@@H]2CC[C@]2(C)[C@@H](O)CC[C@@H]12", "note": "[androgen, dihydrotestosterone]", "values": [{"measurement": "cell growth", "setting": "[2]", "value": "no effect on cell growth"}, {"measurement": "cell growth", "setting": "LNCaP cells", "value": "increased cell growth"}, {"measurement": "androgen receptor activation by androgen (control case)", "setting": "androgen receptor", "value": "activated androgen receptor"}]}, {"smiles": "COC(=O)[C@@H](N)CCCNC(=N)N[N+](=O)[O-]", "note": "[L-NAME]", "values": [{"measurement": "PSA expression", "setting": "[3]", "value": "more PSA was expressed"}]}]}
